# Experiments:
# [1] = cited from earlier work
# [2] = Comparative test of solubility of the solid dispersions in polymer; type: physicochemical; conditions: simulated gastric fluid, thermodynamic from solid, simulated gastric juice (pH 1.2), 25° C., itraconazole:hydrophilic polymer=1:1.5 (w/w), n=3, Average ± Standard deviation
# [3] = pH 8.1 aqueous buffer/n-octanol system; cited from earlier work
smiles,measurement,setting,value
"CCC(C)n1ncn(-c2ccc(N3CCN(c4ccc(OCC5COC(Cn6cncn6)(c6ccc(Cl)cc6Cl)O5)cc4)CC3)cc2)c1=O (mixture of isomers) [itraconazole, (±)-cis-4-[4-[4-[4-[[2-(2,4-dichlorophenyl)-2-(1H-1,2,4-triazol-1-ylmethyl)-1,3-dioxolan-4-yll]methoxy]phenyl]-1-piperazinyl]phenyl]-2,4-dihydro-2-(1-methylpropyl)-3H-1,2,4-triazol-3-one]",solubility in diluted acidic solution,[1]; diluted acidic solution,less than 5 μg/ml
same,solubility in water,[1]; water,less than 1 μg/ml
same,solubility at 24 h,[2],1.38 ± 0.11 µg/mL
same,oil/water partition coefficient,[3],5.66

# — patent publication US6485743B1, “Method and composition of an oral preparation of itraconazole” (Choongwae Pharma Corporation, priority 1997, dated 2002)
